Earlier results on two compounds are cited in KR20220033790A, “장 정결용 조성물” (강윤식, priority 2020, dated 2022).

This data set has as its system blood glucose (혈당). The settings on record: scale 0-100, glucose = 100 at 2 h after intake; background statement.

SMILES strings stand for the structures.

Take `OC[C@@H](O)[C@@H](O)[C@H](O)[C@@H](O)CO.OC[C@@H](O)[C@@H](O)[C@H](O)[C@@H](O)CO` [소르비톨]: the “Glycemic index (GI)” value was 4.
On to `OC[C@@H](O)[C@H](O)[C@@H](O)CO` [자일리톨], for which the “Glycemic index (GI)” value was 14.
